Laboratory results taken from patent US11826351B2, “Compounds useful as kinase inhibitors” (Loxo Oncology, Inc., priority 2015, dated 2023).
pIC50: −log10 of the molar value. Like-named read-outs stand apart in the source and are kept apart here.

What was measured:
Recombinant EGFR = target: T1, Recombinant EGFR (Homo sapiens, UniProt P00533); experiment: EGFR binding affinity (LanthaScreen TR-FRET); details: Kinase Tracer 199, 5 h incubation
T1 construct: purchased Invitrogen
Outline: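 TR-FRET binding (LanthaScreen) with recombinant EGFR; signal measured across a compound concentration range. IC50 obtained by fitting RFU against log[inhibitor] to a variable-slope model.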

[1] = target: T2, Recombinant BTK^C481S kinase (Homo sapiens, UniProt Q06187, C481S); experiment: BTK C481S binding affinity (LanthaScreen TR-FRET); details: Kinase Tracer 236, 5 h incubation
T2 construct: purchased SignalChem
T2 sequence (Q06187 whole entry C481S): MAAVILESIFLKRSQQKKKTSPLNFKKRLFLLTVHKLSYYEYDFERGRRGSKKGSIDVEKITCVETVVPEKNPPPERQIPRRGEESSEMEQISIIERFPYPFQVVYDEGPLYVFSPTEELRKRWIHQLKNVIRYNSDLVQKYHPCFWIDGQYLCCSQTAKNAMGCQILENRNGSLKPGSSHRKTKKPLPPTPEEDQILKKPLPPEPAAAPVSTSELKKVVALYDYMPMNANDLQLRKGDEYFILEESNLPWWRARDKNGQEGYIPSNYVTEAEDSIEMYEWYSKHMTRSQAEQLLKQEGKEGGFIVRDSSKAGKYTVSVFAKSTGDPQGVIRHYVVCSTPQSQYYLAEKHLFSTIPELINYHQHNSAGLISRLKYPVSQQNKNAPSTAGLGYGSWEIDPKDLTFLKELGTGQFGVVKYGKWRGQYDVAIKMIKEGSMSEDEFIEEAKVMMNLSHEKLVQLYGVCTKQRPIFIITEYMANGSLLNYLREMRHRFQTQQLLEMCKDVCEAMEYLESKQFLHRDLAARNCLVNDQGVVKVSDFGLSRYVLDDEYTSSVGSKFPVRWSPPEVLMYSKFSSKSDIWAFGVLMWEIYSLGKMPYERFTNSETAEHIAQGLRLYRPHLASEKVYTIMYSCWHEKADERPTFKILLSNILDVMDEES
Outline: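 BTK C481S tracer-displacement TR-FRET: 5 nM His-tagged kinase, 2 nM Eu anti-His antibody and 30 nM Kinase Tracer 236 incubated with titrated inhibitor for 5 h in Kinase Buffer A. Read at 340 nm excitation, 615/665 nm emission; IC50 from variable-slope log[inhibitor]–response fit.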

[2] = target: T3, Recombinant BTK^WT kinase (Homo sapiens, UniProt Q06187); experiment: BTK WT binding affinity (LanthaScreen TR-FRET); details: Kinase Tracer 236, 5 h incubation
T3 construct: purchased Invitrogen
T3 sequence (Q06187 whole entry): as the sequence (Q06187 whole entry C481S) above, with S481C counted along it
Outline: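 Tracer-displacement TR-FRET: 2.5 nM recombinant BTK^WT, 2 nM Eu anti-His antibody and 15 nM Kinase Tracer 236 incubated with varying inhibitor concentrations for 5 h in Kinase Buffer A. Signal read at 340 nm excitation, 615/665 nm emission; IC50 from variable-slope log[inhibitor]–response fit.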

[3] = system: OCI-Ly10 human DLBCL cells; experiment: OCI-Ly10 anti-proliferative activity (Resazurin); format: cell-based; details: OCI-Ly10 cells, 72 h compound treatment, Resazurin, read-out: Proliferation Assay OCI-Ly10-20% FBS
Outline: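 OCI-Ly10 human DLBCL cells, whose growth depends on NFκB signalling, were seeded at 7.5×10^3 cells per well in 96-well plates with a range of compound concentrations and kept at 37° C for 72 h. Resazurin was then added, and after 5 h fluorescence was read at 590 nm.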

T1 sequence (P00533 25-1210): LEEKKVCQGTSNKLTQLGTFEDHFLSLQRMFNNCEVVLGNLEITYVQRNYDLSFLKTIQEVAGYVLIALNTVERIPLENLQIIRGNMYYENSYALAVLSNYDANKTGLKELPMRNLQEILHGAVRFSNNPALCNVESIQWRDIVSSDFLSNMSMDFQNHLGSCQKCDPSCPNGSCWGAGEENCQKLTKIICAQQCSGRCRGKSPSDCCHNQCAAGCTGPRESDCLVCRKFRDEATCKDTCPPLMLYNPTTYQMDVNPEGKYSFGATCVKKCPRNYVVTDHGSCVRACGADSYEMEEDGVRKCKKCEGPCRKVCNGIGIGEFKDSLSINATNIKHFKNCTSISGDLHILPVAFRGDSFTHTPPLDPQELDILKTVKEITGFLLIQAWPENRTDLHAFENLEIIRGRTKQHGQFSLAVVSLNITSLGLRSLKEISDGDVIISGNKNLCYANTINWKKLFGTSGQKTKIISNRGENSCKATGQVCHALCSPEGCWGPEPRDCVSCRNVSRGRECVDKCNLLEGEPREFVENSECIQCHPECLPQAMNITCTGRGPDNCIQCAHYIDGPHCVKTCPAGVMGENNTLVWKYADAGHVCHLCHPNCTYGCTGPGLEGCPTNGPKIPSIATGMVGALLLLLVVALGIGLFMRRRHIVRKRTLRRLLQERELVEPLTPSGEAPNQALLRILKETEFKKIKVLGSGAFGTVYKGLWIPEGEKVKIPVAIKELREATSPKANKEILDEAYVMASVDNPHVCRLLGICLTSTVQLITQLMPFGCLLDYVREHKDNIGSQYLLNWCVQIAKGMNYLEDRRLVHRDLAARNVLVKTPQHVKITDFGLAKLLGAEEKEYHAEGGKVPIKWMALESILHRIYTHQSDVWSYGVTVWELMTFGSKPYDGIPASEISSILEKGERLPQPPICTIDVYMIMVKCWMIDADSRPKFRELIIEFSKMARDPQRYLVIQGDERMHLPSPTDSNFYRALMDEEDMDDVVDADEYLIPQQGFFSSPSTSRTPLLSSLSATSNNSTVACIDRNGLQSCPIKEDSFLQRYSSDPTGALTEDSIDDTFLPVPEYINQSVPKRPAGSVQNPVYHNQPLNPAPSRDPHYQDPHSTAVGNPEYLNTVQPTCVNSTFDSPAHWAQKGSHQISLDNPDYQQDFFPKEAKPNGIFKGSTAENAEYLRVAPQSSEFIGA

Row | Compound | pIC50 (Recombinant EGFR) | pIC50 [1] | pIC50 [2] | pIC50 ([3]; Homo sapiens, OCI-Ly10, 72 h) | pIC50 [3]
1 | COc1ccccc1C(=O)NCc1ccc(-c2nn(C3CCOC3)c(N)c2C(N)=O)c(F)c1 (centres unmarked) [Example 100, 5-amino-3-[2-fluoro-4-[[(2-methoxybenzoyl)amino]methyl]phenyl]-1-tetrahydrofuran-3-yl-pyrazole-4-carboxamide] | < 5.00 | > 8.00 | 7.00 to 8.00 | 6.00 to 7.00 | 
2 | COc1ccccc1C(=O)NCc1ccc(-c2nn([C@@H]3CCc4ccccc43)c(N)c2C(N)=O)cc1 [Example 23, 5-Amino-1-[(1R)-indan-1-yl]-3-[4-[[(2-methoxybenzoyl)amino]methyl]phenyl]pyrazole-4-carboxamide] | 6.00 to 7.00 | > 8.00 | > 8.00 | 7.00 to 8.00 | 
3 | COc1ccc(F)cc1C(=O)NCc1ccc(-c2nn(C(C)C3CCOCC3)c(N)c2C(N)=O)cc1 (centres unmarked) [Example 161, 5-amino-3-[4-[[(5-fluoro-2-methoxy-benzoyl)amino]methyl]phenyl]-1-(1-tetrahydropyran-4-ylethyl)pyrazole-4-carboxamide] | < 5.00 | > 8.00 | 7.00 to 8.00 | 6.00 to 7.00 | 
4 | COc1ccc(F)cc1C(=O)NCc1ccc(-c2nn([C@H](C)C(F)(F)F)c(N)c2C(N)=O)cc1 (single isomer, unassigned) [Example 163b, 5-amino-3-[4-[[(5-fluoro-2-methoxy-benzoyl)amino]methyl]phenyl]-1-(2,2,2-trifluoro-1-methyl-ethyl)pyrazole-4-carboxamide] | 5.00 to 6.00 | > 8.00 | > 8.00 | 7.00 to 8.00 | 
5 | COc1ccccc1C(=O)NC(C)c1ccc(-c2nn(C3CCCC3)c(N)c2C(N)=O)cc1 (centres unmarked) [Example 79, 5-amino-1-cyclopentyl-3-[4-[1-[(2-methoxybenzoyl)amino]ethyl]phenyl]pyrazole-4-carboxamide] | 5.00 to 6.00 | 6.00 to 7.00 | 6.00 to 7.00 | 5.00 to 6.00 | 
6 | CCn1nc(-c2ccc(CNC(=O)c3cc(F)ccc3OC)cc2)c(C(N)=O)c1N [Example 195, 5-amino-1-ethyl-3-[4-[[(5-fluoro-2-methoxy-benzoyl)amino]methyl]phenyl]pyrazole-4-carboxamide] | 5.00 to 6.00 | > 8.00 | > 8.00 | 7.00 to 8.00 | 
7 | COc1ccc(F)cc1C(=O)NCc1ccc(-c2nn(C3CNCC3(F)F)c(N)c2C(N)=O)cc1 (centres unmarked) [Example 169, 5-amino-1-(4,4-difluoropyrrolidin-3-yl)-3-[4-[[(5-fluoro-2-methoxy-benzoyl)amino]methyl]phenyl]pyrazole-4-carboxamide] | 5.00 to 6.00 | > 8.00 | > 8.00 | 7.00 to 8.00 | 
8 | COc1ccccc1C(=O)NCc1ccc(-c2nn(CC(=O)C(C)(C)C)c(N)c2C(N)=O)cc1 [Example 10, 5-Amino-1-(3,3-dimethyl-2-oxo-butyl)-3-[4-[[(2-methoxybenzoyl)amino]methyl]phenyl]pyrazole-4-carboxamide] | 5.00 to 6.00 | 7.00 to 8.00 | 7.00 to 8.00 | 6.00 to 7.00 | 
9 | COc1ccccc1C(=O)NCc1ccc(-c2nn(C3CCC(O)CC3)c(N)c2C(N)=O)cc1 (single isomer, unassigned) [Example 34a, 5-Amino-1-(4-hydroxycyclohexyl)-3-[4-[[(2-methoxybenzoyl)amino]methyl]phenyl]pyrazole-4-carboxamide] | 6.00 to 7.00 | > 8.00 | > 8.00 |  | 7.00 to 8.00
10 | COc1ccccc1C(=O)NCc1ccc(-c2nn(C(C)C(F)F)c(N)c2C(N)=O)cc1 (centres unmarked) [Example 126, 5-amino-1-(2,2-difluoro-1-methyl-ethyl)-3-[4-[[(2-methoxybenzoyl)amino]methyl]phenyl]pyrazole-4-carboxamide] | 5.00 to 6.00 | > 8.00 | 7.00 to 8.00 | 6.00 to 7.00 | 
11 | COc1ccc(F)cc1C(=O)NCc1ccc(-c2nn(C(C)C3CCOC3)c(N)c2C(N)=O)cc1 (mixture of isomers) [Example 172, 5-amino-3-[4-[[(5-fluoro-2-methoxy-benzoyl)amino]methyl]phenyl]-1-(1-tetrahydrofuran-3-ylethyl)pyrazole-4-carboxamide] | 5.00 to 6.00 | > 8.00 | > 8.00 | 6.00 to 7.00 | 
12 | COc1ccccc1C(=O)NCc1ccc(-c2nn(C3CCOC3C)c(N)c2C(N)=O)cc1 (single isomer, unassigned) [Example 84, 5-amino-3-[4-[[(2-methoxybenzoyl)amino]methyl]phenyl]-1-[2-methyltetrahydrofuran-3-yl]pyrazole-4-carboxamide] | 5.00 to 6.00 | > 8.00 | 7.00 to 8.00 |  | 5.00 to 6.00
13 | CCNc1c(C(N)=O)c(-c2ccc(CNC(=O)c3ccccc3OC)cc2)nn1C1CCCC1 [Example 73, 1-cyclopentyl-5-(ethylamino)-3-[4-[[(2-methoxybenzoyl)amino]methyl]phenyl]pyrazole-4-carboxamide] | 6.00 to 7.00 | > 8.00 | > 8.00 | 7.00 to 8.00 | 
14 | COc1ccccc1C(=O)NCc1ccc(-c2nn([C@H]3CC[C@H](O)C3)c(N)c2C(N)=O)cc1 (relative stereo) [Example 46, 5-Amino-1-[(1S*,3S*)-3-hydroxycyclopentyl]-3-[4-[[(2-methoxybenzoyl)amino]methyl]phenyl]pyrazole-4-carboxamide] | 6.00 to 7.00 | > 8.00 | > 8.00 | 7.00 to 8.00 | 

More lines, now with the values ahead:

Row | pIC50 (Recombinant EGFR) | pIC50 [1] | pIC50 [2] | pIC50 ([3]; Homo sapiens, OCI-Ly10, 72 h) | pIC50 [3] | Compound
15 | 6.00 to 7.00 | > 8.00 | > 8.00 | 6.00 to 7.00 |  | COc1ccccc1C(=O)NCc1ccc(-c2nn(C3CNCC3(F)F)c(N)c2C(N)=O)cc1 (centres unmarked) [Example 144, 5-amino-1-(4,4-difluoropyrrolidin-3-yl)-3-[4-[[(2-methoxybenzoyl)amino]methyl]phenyl]pyrazole-4-carboxamide]
16 | 6.00 to 7.00 | > 8.00 | > 8.00 | 7.00 to 8.00 |  | COc1ccccc1C(=O)NCc1ccc(-c2nn(C3CCCC3)c(N)c2C(N)=O)cc1C [Example 62, 5-amino-1-cyclopentyl-3-[4-[[(2-methoxybenzoyl)amino]methyl]-3-methyl-phenyl]pyrazole-4-carboxamide]
17 | 5.00 to 6.00 | > 8.00 | > 8.00 | 7.00 to 8.00 |  | COc1ccc(F)cc1C(=O)NCc1ccc(-c2nn(C3CCOC3)c(N)c2C(N)=O)cc1F (centres unmarked) [Example 119, 5-amino-3-[3-fluoro-4-[[(5-fluoro-2-methoxy-benzoyl)amino]methyl]phenyl]-1-tetrahydrofuran-3-yl-pyrazole-4-carboxamide]
18 | 5.00 to 6.00 | > 8.00 | 7.00 to 8.00 | 6.00 to 7.00 |  | COc1ccc(F)cc1C(=O)NCc1ccc(-c2nn(C(CCO)C(F)F)c(N)c2C(N)=O)cc1 (centres unmarked) [Example 193, 5-Amino-1-[1-(difluoromethyl)-3-hydroxy-propyl]-3-[4-[[(5-fluoro-2-methoxy-benzoyl)amino]methyl]phenyl]pyrazole-4-carboxamide]
19 | 5.00 to 6.00 | > 8.00 | > 8.00 | 7.00 to 8.00 |  | COc1ccc(F)cc1C(=O)NCc1ccc(-c2nn(C3CCCOC3)c(N)c2C(N)=O)cc1F (centres unmarked) [Example 127, 5-amino-3-[3-fluoro-4-[[(5-fluoro-2-methoxy-benzoyl)amino]methyl]phenyl]-1-tetrahydropyran-3-yl-pyrazole-4-carboxamide]
20 | 5.00 to 6.00 | > 8.00 | > 8.00 | 6.00 to 7.00 |  | COc1ccc(F)cc1C(=O)NCc1ccc(-c2nn(C3CCOCC3)c(N)c2C(N)=O)cc1F [Example 123, 5-amino-3-[3-fluoro-4-[[(5-fluoro-2-methoxy-benzoyl)amino]methyl]phenyl]-1-tetrahydropyran-4-yl-pyrazole-4-carboxamide]
21 | 5.00 to 6.00 | > 8.00 | > 8.00 | 6.00 to 7.00 |  | COc1ccccc1C(=O)NCc1ccc(-c2nn(C3CCC(=O)C3)c(N)c2C(N)=O)cc1 (centres unmarked) [Example 13, 5-Amino-3-[4-[[(2-methoxybenzoyl)amino]methyl]phenyl]-1-(3-oxocyclopentyl)pyrazole-4-carboxamide]
22 | 5.00 to 6.00 | 7.00 to 8.00 | 7.00 to 8.00 | 5.00 to 6.00 |  | COc1ccccc1C(=O)NCc1ccc(-c2nn(C3CCOCC3(C)C)c(N)c2C(N)=O)cc1 (centres unmarked) [Example 89, 5-amino-1-(3,3-dimethyltetrahydropyran-4-yl)-3-[4-[[(2-methoxybenzoyl)amino]methyl]phenyl]pyrazole-4-carboxamide]
23 | 5.00 to 6.00 | > 8.00 | > 8.00 | 7.00 to 8.00 |  | COc1ccc(F)cc1C(=O)NCc1ccc(-c2nn(CC(C)C(F)(F)F)c(N)c2C(N)=O)cc1 (centres unmarked) [Example 176, 5-amino-3-[4-[[(5-fluoro-2-methoxy-benzoyl)amino]methyl]phenyl]-1-(3,3,3-trifluoro-2-methyl-propyl)pyrazole-4-carboxamide]
